For assay [1], the system named is RAW264.7. In words: Anti-inflammatory activity in mouse RAW264.7 cells assessed as inhibition of LPS-induced TNFalpha mRNA level at 2.5 ug/ml preincubated for 2 hrs followed by LPS-stimulation measured after 8 hrs by RT-PCR method relative to control. It is filed as functional.
Assay [2] has as its system RAW264.7. In words: Anti-inflammatory activity in mouse RAW264.7 cells assessed as inhibition of LPS-induced TGFbeta mRNA level at 2.5 ug/ml preincubated for 2 hrs followed by LPS-stimulation measured after 8 hrs by RT-PCR method relative to control. It is filed as functional.
The nature of assay [3]: Cytotoxicity against human SGC cells assessed as reduction in cell viability after 72 hrs by MTT assay. It is filed as functional, cell-based. For orientation: Tetrazolium assays rely on reduction of a dye to a coloured formazan, in cell work by metabolically active cells.
In a further assay the test system is NCI-H1975. Description: Cytotoxicity against human NCI-H1975 cells assessed as reduction in cell viability after 72 hrs by MTT assay. It is filed as functional, cell-based. Conditions: NCI-H1975, 72 h.
For assay [4], the system named is RAW264.7. Description: Anti-inflammatory activity in mouse RAW264.7 cells assessed as inhibition of LPS-induced TNFalpha mRNA level preincubated for 2 hrs followed by LPS-stimulation measured after 8 hrs by RT-PCR method. It is filed as functional, cell-based.
Assay [5] concerns RAW264.7. Description: Anti-inflammatory activity in mouse RAW264.7 cells assessed as inhibition of LPS-induced TGFbeta mRNA level preincubated for 2 hrs followed by LPS-stimulation measured after 8 hrs by RT-PCR method. It is filed as functional, cell-based.
For assay [6], the system named is RAW264.7. In words: Anti-inflammatory activity in mouse RAW264.7 cells assessed as inhibition of LPS-induced NO production by measuring NO level at 10 ug/ml preincubated for 1 hr followed by LPS-stimulation measured after 24 hrs by Griess assay. It is filed as functional.
Assay [7] concerns the target Vascular endothelial growth factor receptor 2 (Homo sapiens, UniProt P35968). Description: Inhibition of VEGFR2 (unknown origin) using peptide substrate after 60 mins by HTRF assay. A general note: TR-FRET usually uses a lanthanide donor and a delayed reading to cut background.
For assay [8], the system named is RAW264.7. In words: Anti-inflammatory activity in mouse RAW264.7 cells assessed as inhibition of LPS-induced TNFalpha mRNA level at 5 ug/ml preincubated for 2 hrs followed by LPS-stimulation measured after 8 hrs by RT-PCR method relative to control. It is filed as functional.
Assay [9] can be described thus: Antifibrotic activity against Wistar rat cardiac fibroblasts assessed as inhibition of cell proliferation at 20 uM after 12 hrs by MTT assay relative to control. It is filed as functional.
For the next assay, the system named is MKN-45. Description: Cytotoxicity against human MKN45 cells assessed as reduction in cell viability after 72 hrs by MTT assay. Conditions: MKN-45, 72 h. It is filed as functional, cell-based.
The subject of assay [10] is RAW264.7. In words: Anti-inflammatory activity in mouse RAW264.7 cells assessed as inhibition of LPS-induced TGFbeta mRNA level at 5 ug/ml preincubated for 2 hrs followed by LPS-stimulation measured after 8 hrs by RT-PCR method relative to control. It is filed as functional.
Assay [11] in a line: Inhibition of glycosylated human ATX using substrate FS-3 preincubated for 45 mins followed by substrate addition measured after 45 mins by fluorescence assay.
Assay [12] concerns RAW264.7. In words: Anti-inflammatory activity in mouse RAW264.7 cells assessed as inhibition of LPS-induced TNFalpha mRNA level at 10 ug/ml preincubated for 2 hrs followed by LPS-stimulation measured after 8 hrs by RT-PCR method relative to control. It is filed as functional.
The nature of assay [13]: Antifibrotic activity against TGF-induced Wistar rat cardiac fibroblasts assessed as inhibition of cell proliferation after 12 hrs by MTT assay. It is filed as functional.
The subject of another assay is A549. In words: Cytotoxicity against human A549 cells assessed as reduction in cell viability after 72 hrs by MTT assay. It is filed as functional, cell-based. Conditions: A549, 72 h.
In assay [14] the target is Epidermal growth factor receptor (Homo sapiens, UniProt P00533). Description: Inhibition of EGFR (unknown origin) using peptide substrate after 60 mins by HTRF assay.
The target of assay [15] is Epidermal growth factor receptor (Homo sapiens, UniProt P00533, L858R/T790M). Description: Inhibition of EGFR T790M/L858R double mutant (unknown origin) using peptide substrate after 60 mins by HTRF assay.
Assay [16] deals with RAW264.7. Description: Anti-inflammatory activity in mouse RAW264.7 cells assessed as inhibition of LPS-induced TGFbeta mRNA level at 10 ug/ml preincubated for 2 hrs followed by LPS-stimulation measured after 8 hrs by RT-PCR method relative to control. It is filed as functional.

SMILES strings stand for the structures.

Usually inhibition stands for the share of the control response that was lost under treatment. The IC50 is the concentration at which inhibition is half-maximal.

Sequence of Epidermal growth factor receptor (Homo sapiens, UniProt P00533, L858R/T790M) (P00533 25-1210 T790M/L858R limits assumed): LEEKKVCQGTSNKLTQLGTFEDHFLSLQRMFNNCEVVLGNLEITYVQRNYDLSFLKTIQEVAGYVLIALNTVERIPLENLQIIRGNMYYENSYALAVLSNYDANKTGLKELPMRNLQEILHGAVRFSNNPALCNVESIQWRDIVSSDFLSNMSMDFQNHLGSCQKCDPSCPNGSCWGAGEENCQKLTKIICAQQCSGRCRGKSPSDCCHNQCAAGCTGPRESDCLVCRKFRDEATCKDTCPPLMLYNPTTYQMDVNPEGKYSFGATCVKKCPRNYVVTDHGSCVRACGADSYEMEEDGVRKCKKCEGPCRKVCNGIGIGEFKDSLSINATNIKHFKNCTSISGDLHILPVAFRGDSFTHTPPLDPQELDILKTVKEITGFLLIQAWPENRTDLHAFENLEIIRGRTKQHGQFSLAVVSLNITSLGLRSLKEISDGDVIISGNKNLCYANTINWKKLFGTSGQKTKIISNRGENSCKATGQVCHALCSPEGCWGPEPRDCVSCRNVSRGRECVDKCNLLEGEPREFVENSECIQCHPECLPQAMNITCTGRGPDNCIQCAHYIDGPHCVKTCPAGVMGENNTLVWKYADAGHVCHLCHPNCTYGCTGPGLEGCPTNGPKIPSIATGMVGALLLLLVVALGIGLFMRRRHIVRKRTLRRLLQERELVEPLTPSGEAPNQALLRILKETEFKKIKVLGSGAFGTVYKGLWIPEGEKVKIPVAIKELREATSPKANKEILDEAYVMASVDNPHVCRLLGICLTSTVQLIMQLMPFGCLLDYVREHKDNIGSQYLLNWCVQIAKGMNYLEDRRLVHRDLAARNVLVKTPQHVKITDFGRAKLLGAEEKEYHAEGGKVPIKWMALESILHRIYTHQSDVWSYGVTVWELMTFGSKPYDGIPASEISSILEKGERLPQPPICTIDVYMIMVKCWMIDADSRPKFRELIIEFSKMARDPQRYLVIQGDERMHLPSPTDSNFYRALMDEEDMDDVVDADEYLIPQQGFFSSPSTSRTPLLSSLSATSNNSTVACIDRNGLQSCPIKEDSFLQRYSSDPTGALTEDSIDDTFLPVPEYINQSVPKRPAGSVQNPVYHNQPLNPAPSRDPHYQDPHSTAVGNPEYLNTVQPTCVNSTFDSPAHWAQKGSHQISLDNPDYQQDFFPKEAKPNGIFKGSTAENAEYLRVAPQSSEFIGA
Sequence of Epidermal growth factor receptor (Homo sapiens, UniProt P00533) (P00533 whole entry): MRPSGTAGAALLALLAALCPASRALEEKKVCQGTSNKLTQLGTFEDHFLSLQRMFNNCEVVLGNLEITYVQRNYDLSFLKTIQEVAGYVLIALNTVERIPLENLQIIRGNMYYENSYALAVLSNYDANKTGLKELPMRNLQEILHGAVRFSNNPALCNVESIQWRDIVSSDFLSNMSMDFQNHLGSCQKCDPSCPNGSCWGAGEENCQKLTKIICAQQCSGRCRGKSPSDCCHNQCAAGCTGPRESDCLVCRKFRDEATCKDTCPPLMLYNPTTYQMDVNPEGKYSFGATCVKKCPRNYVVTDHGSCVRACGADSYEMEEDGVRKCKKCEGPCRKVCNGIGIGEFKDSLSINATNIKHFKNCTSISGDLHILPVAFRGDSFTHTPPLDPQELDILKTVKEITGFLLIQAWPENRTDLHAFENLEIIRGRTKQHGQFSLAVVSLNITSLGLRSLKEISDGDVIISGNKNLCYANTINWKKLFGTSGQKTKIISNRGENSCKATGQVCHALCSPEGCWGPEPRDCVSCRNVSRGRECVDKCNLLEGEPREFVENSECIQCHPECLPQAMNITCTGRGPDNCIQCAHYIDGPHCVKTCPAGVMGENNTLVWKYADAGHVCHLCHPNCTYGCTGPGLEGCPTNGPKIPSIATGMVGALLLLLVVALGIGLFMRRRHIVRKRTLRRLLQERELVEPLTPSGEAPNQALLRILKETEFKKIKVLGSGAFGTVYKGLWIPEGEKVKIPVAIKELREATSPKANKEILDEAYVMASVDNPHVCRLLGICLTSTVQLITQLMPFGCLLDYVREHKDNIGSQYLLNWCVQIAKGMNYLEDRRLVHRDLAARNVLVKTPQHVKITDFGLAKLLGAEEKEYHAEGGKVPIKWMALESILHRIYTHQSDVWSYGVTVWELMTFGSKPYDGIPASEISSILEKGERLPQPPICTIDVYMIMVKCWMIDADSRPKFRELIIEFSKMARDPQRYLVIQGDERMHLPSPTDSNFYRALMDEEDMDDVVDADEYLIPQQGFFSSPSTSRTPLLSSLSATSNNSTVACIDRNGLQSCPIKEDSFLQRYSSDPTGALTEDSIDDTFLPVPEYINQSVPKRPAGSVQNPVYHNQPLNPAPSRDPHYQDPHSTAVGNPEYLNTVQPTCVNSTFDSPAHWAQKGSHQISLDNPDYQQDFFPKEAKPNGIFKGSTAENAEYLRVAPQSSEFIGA
Sequence of Vascular endothelial growth factor receptor 2 (P35968 whole entry): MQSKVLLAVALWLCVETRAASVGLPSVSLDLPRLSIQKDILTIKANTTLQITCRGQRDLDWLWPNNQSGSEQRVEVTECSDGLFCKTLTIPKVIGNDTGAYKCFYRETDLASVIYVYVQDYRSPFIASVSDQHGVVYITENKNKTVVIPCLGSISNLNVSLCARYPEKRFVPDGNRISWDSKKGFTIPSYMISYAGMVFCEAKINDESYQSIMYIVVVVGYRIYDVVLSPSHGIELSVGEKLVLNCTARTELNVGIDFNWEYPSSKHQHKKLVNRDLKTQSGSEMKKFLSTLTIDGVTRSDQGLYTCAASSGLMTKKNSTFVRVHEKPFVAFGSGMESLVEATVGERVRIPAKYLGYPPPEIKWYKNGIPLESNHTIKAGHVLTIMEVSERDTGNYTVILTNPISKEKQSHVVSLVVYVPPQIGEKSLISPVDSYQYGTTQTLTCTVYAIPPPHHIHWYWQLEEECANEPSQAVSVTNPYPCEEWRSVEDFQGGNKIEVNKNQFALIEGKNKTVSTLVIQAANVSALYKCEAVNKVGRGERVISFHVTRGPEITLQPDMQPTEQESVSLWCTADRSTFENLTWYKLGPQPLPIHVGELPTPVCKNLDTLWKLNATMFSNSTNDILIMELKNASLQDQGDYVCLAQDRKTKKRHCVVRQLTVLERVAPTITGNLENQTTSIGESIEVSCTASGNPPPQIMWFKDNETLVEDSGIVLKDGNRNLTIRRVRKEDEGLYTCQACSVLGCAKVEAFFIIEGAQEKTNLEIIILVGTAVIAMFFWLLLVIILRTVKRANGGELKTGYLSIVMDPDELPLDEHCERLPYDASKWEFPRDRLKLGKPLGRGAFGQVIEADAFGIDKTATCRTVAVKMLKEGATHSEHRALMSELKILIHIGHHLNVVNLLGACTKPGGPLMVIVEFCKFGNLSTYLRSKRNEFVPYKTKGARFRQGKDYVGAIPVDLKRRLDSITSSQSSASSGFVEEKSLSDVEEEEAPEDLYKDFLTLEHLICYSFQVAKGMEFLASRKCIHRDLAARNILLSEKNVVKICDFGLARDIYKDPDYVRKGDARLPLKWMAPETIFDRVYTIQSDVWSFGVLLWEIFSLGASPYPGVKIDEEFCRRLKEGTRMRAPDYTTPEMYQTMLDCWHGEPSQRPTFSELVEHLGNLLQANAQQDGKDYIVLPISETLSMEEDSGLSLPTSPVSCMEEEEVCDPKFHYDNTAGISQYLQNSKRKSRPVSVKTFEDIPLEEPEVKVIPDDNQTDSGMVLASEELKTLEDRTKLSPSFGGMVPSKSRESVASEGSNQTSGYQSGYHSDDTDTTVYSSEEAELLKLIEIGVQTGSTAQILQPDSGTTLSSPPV

Regarding `Cc1ccc(/C=N/NC(=O)N2CCc3ncnc(Nc4cccc(C(F)(F)F)c4)c3C2)cc1`, the inhibition at 2.5 µg/mL with RAW264.7 [1] stood at 37%; with RAW264.7 [2], 46%. In addition, the half-inhibitory concentration (IC50) in assay [3] is 2910 nM; with NCI-H1975, 21300 nM; in [7], 152 nM; with MKN-45, 3430 nM; in assay [11], 29.1 nM; in assay [13] it was 1490 nM. In addition, the half-inhibitory concentration (IC50) stood at 4960 nM in the assay on A549, 24.2 nM in assay [14] and 3220 nM in assay [15]. Moreover, the inhibition entry with RAW264.7 [4] and in the assay with RAW264.7 [5] was “Dose-dependent effect” each time. Besides, in the assay with RAW264.7 [6], the Activity was found to be 1.05 µM. For the same compound, the values for the inhibition at 5 µg/mL with RAW264.7 [8] and in the assay with RAW264.7 [10] were 54% and 65%, respectively. For the same compound, the inhibition at 20 µM in [9] is 77%. The inhibition at 10 µg/mL was found to be 72% in the assay on RAW264.7 [12] and 86% in the assay on RAW264.7 [16].

(Values after ChEMBL document CHEMBL4219106, “Discovery and optimization of tetrahydropyrido[4,3-d]pyrimidine derivatives as novel ATX and EGFR dual inhibitors” (Bioorg Med Chem, 2018).)
